{"source": "the supplement of paper PMC10883282", "assay_in_all_cases": "standardised AUC of viability dose-response curve (72 h) (fraction (0-1)); higher = less growth inhibition (more resistant)", "key": {"VA-ES-BJ": {"tested_on": "VA-ES-BJ", "summary_of_the_method": "(§1)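 Viability of sarcoma cell lines was read with ATPLite after 72 h of triplicate treatment in 384-well plates with 2.5 µl of compound from a compound-plate series of 10 mM to 0.0002 mM. Viability was scaled 1 (full) to 0 (none) and fitted with a four-parameter log-logistic model for each drug and cell line. The reported standardised area under the dose-response curve in log-dose space comes from a modified drexplorer computeAUC, where 1 is no response and 0 is full response.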"}, "RD-ES": {"tested_on": "RD-ES", "summary_of_the_method": "as §1"}, "SW872": {"tested_on": "SW872", "summary_of_the_method": "as §1"}, "G401": {"tested_on": "G401", "summary_of_the_method": "as §1"}, "SW1353": {"tested_on": "SW1353", "summary_of_the_method": "as §1"}, "SYO-1": {"tested_on": "SYO-1", "summary_of_the_method": "as §1"}, "HS729": {"tested_on": "HS729", "summary_of_the_method": "as §1"}, "KHOS-NP": {"tested_on": "KHOS-NP", "summary_of_the_method": "as §1"}, "SW684": {"tested_on": "SW684", "summary_of_the_method": "as §1"}, "SK-ES-1": {"tested_on": "SK-ES-1", "summary_of_the_method": "as §1"}, "MES-SA": {"tested_on": "MES-SA", "summary_of_the_method": "as §1"}, "HT1080": {"tested_on": "HT1080", "summary_of_the_method": "as §1"}, "KHOS-240S": {"tested_on": "KHOS-240S", "summary_of_the_method": "as §1"}, "A204": {"tested_on": "A204", "summary_of_the_method": "as §1"}, "SK-LMS-1": {"tested_on": "SK-LMS-1", "summary_of_the_method": "as §1"}, "RD": {"tested_on": "RD", "summary_of_the_method": "as §1"}, "SW982": {"tested_on": "SW982", "summary_of_the_method": "as §1"}}, "data": [{"smiles": "Cc1nc(-c2cn3c(n2)-c2ccc(-c4cnn(C(C)(C)C(N)=O)c4)cc2OCC3)n(C(C)C)n1", "note": "[TASELISIB]", "values": [{"measurement": "standardised AUC", "setting": "VA-ES-BJ", "result": 0.727}, {"measurement": "standardised AUC", "setting": "RD-ES", "result": 0.675}, {"measurement": "standardised AUC", "setting": "SW872", "result": 0.76}, {"measurement": "standardised AUC", "setting": "G401", "result": 0.744}, {"measurement": "standardised AUC", "setting": "SW1353", "result": 0.855}, {"measurement": "standardised AUC", "setting": "SYO-1", "result": 0.84}, {"measurement": "standardised AUC", "setting": "HS729", "result": 0.77}, {"measurement": "standardised AUC", "setting": "KHOS-NP", "result": 0.975}, {"measurement": "standardised AUC", "setting": "SW684", "result": 0.702}, {"measurement": "standardised AUC", "setting": "SK-ES-1", "result": 0.68}, {"measurement": "standardised AUC", "setting": "MES-SA", "result": 0.664}, {"measurement": "standardised AUC", "setting": "HT1080", "result": 0.989}, {"measurement": "standardised AUC", "setting": "KHOS-240S", "result": 0.843}, {"measurement": "standardised AUC", "setting": "A204", "result": 0.675}, {"measurement": "standardised AUC", "setting": "SK-LMS-1", "result": 0.771}, {"measurement": "standardised AUC", "setting": "RD", "result": 0.727}, {"measurement": "standardised AUC", "setting": "SW982", "result": 0.826}]}, {"smiles": "CCN1CCN(Cc2ccc(Nc3ncc(F)c(-c4cc(F)c5nc(C)n(C(C)C)c5c4)n3)nc2)CC1", "note": "[ABEMACICLIB]", "values": [{"measurement": "standardised AUC", "setting": "VA-ES-BJ", "result": 0.804}, {"measurement": "standardised AUC", "setting": "RD-ES", "result": 0.734}, {"measurement": "standardised AUC", "setting": "SW872", "result": 0.872}, {"measurement": "standardised AUC", "setting": "G401", "result": 0.855}, {"measurement": "standardised AUC", "setting": "SW1353", "result": 0.88}, {"measurement": "standardised AUC", "setting": "SYO-1", "result": 0.715}, {"measurement": "standardised AUC", "setting": "HS729", "result": 0.966}, {"measurement": "standardised AUC", "setting": "KHOS-NP", "result": 0.95}, {"measurement": "standardised AUC", "setting": "SW684", "result": 0.901}, {"measurement": "standardised AUC", "setting": "SK-ES-1", "result": 0.631}, {"measurement": "standardised AUC", "setting": "MES-SA", "result": 0.805}, {"measurement": "standardised AUC", "setting": "HT1080", "result": 0.993}, {"measurement": "standardised AUC", "setting": "KHOS-240S", "result": 0.856}, {"measurement": "standardised AUC", "setting": "A204", "result": 0.746}, {"measurement": "standardised AUC", "setting": "SK-LMS-1", "result": 0.938}, {"measurement": "standardised AUC", "setting": "RD", "result": 0.97}, {"measurement": "standardised AUC", "setting": "SW982", "result": 0.734}]}, {"smiles": "Nc1cc(C(F)(F)F)c(-c2cc(N3CCOCC3)nc(N3CCOCC3)n2)cn1", "note": "[BUPARLISIB]", "values": [{"measurement": "standardised AUC", "setting": "VA-ES-BJ", "result": 0.762}, {"measurement": "standardised AUC", "setting": "RD-ES", "result": 0.769}, {"measurement": "standardised AUC", "setting": "SW872", "result": 0.809}, {"measurement": "standardised AUC", "setting": "G401", "result": 0.823}, {"measurement": "standardised AUC", "setting": "SW1353", "result": 0.85}, {"measurement": "standardised AUC", "setting": "SYO-1", "result": 0.791}, {"measurement": "standardised AUC", "setting": "HS729", "result": 0.815}, {"measurement": "standardised AUC", "setting": "KHOS-NP", "result": 0.887}, {"measurement": "standardised AUC", "setting": "SW684", "result": 0.823}, {"measurement": "standardised AUC", "setting": "SK-ES-1", "result": 0.742}, {"measurement": "standardised AUC", "setting": "MES-SA", "result": 0.753}, {"measurement": "standardised AUC", "setting": "HT1080", "result": 0.862}, {"measurement": "standardised AUC", "setting": "KHOS-240S", "result": 0.829}, {"measurement": "standardised AUC", "setting": "A204", "result": 0.754}, {"measurement": "standardised AUC", "setting": "SK-LMS-1", "result": 0.75}, {"measurement": "standardised AUC", "setting": "RD", "result": 0.785}, {"measurement": "standardised AUC", "setting": "SW982", "result": 0.79}]}, {"smiles": "C[C@@H](c1ccc2nccn2c1)n1nnc2ncc(-c3cnn(C)c3)nc21", "note": "[VOLITINIB]", "values": [{"measurement": "standardised AUC", "setting": "VA-ES-BJ", "result": 0.883}, {"measurement": "standardised AUC", "setting": "RD-ES", "result": 0.993}, {"measurement": "standardised AUC", "setting": "SW872", "result": 0.992}, {"measurement": "standardised AUC", "setting": "G401", "result": 0.992}, {"measurement": "standardised AUC", "setting": "SW1353", "result": 0.991}, {"measurement": "standardised AUC", "setting": "SYO-1", "result": 0.998}, {"measurement": "standardised AUC", "setting": "HS729", "result": 0.998}, {"measurement": "standardised AUC", "setting": "KHOS-NP", "result": 0.981}, {"measurement": "standardised AUC", "setting": "SW684", "result": 0.986}, {"measurement": "standardised AUC", "setting": "SK-ES-1", "result": 0.996}, {"measurement": "standardised AUC", "setting": "MES-SA", "result": 0.994}, {"measurement": "standardised AUC", "setting": "HT1080", "result": 0.982}, {"measurement": "standardised AUC", "setting": "KHOS-240S", "result": 1}, {"measurement": "standardised AUC", "setting": "A204", "result": 0.974}, {"measurement": "standardised AUC", "setting": "SK-LMS-1", "result": 0.725}, {"measurement": "standardised AUC", "setting": "RD", "result": 0.988}, {"measurement": "standardised AUC", "setting": "SW982", "result": 0.993}]}, {"smiles": "CC(C)N1CCN(Cc2cnc(-c3cc(-c4cccc5[nH]ccc45)cc4[nH]ncc34)o2)CC1", "note": "[NEMIRALISIB]", "values": [{"measurement": "standardised AUC", "setting": "VA-ES-BJ", "result": 0.952}, {"measurement": "standardised AUC", "setting": "RD-ES", "result": 0.95}, {"measurement": "standardised AUC", "setting": "SW872", "result": 0.919}, {"measurement": "standardised AUC", "setting": "G401", "result": 0.947}, {"measurement": "standardised AUC", "setting": "SW1353", "result": 0.917}, {"measurement": "standardised AUC", "setting": "SYO-1", "result": 0.916}, {"measurement": "standardised AUC", "setting": "HS729", "result": 0.906}, {"measurement": "standardised AUC", "setting": "KHOS-NP", "result": 0.998}, {"measurement": "standardised AUC", "setting": "SW684", "result": 0.726}, {"measurement": "standardised AUC", "setting": "SK-ES-1", "result": 0.935}, {"measurement": "standardised AUC", "setting": "MES-SA", "result": 0.95}, {"measurement": "standardised AUC", "setting": "HT1080", "result": 0.996}, {"measurement": "standardised AUC", "setting": "KHOS-240S", "result": 0.944}, {"measurement": "standardised AUC", "setting": "A204", "result": 0.908}, {"measurement": "standardised AUC", "setting": "SK-LMS-1", "result": 0.944}, {"measurement": "standardised AUC", "setting": "RD", "result": 0.924}, {"measurement": "standardised AUC", "setting": "SW982", "result": 0.916}]}, {"smiles": "CN1CCN(c2ccc3nc(-c4c(N)c5c(F)cccc5[nH]c4=O)[nH]c3c2)CC1", "note": "[DOVITINIB]", "values": [{"measurement": "standardised AUC", "setting": "VA-ES-BJ", "result": 0.865}, {"measurement": "standardised AUC", "setting": "RD-ES", "result": 0.82}, {"measurement": "standardised AUC", "setting": "SW872", "result": 0.823}, {"measurement": "standardised AUC", "setting": "G401", "result": 0.833}, {"measurement": "standardised AUC", "setting": "SW1353", "result": 0.86}, {"measurement": "standardised AUC", "setting": "SYO-1", "result": 0.717}, {"measurement": "standardised AUC", "setting": "HS729", "result": 0.821}, {"measurement": "standardised AUC", "setting": "KHOS-NP", "result": 0.917}, {"measurement": "standardised AUC", "setting": "SW684", "result": 0.902}, {"measurement": "standardised AUC", "setting": "SK-ES-1", "result": 0.749}, {"measurement": "standardised AUC", "setting": "MES-SA", "result": 0.81}, {"measurement": "standardised AUC", "setting": "HT1080", "result": 0.906}, {"measurement": "standardised AUC", "setting": "KHOS-240S", "result": 0.81}, {"measurement": "standardised AUC", "setting": "A204", "result": 0.748}, {"measurement": "standardised AUC", "setting": "SK-LMS-1", "result": 0.904}, {"measurement": "standardised AUC", "setting": "RD", "result": 0.904}, {"measurement": "standardised AUC", "setting": "SW982", "result": 0.792}]}]}
